Test results from patent US20070128217A1 (priority 2003, published 2007).

Key:
[1] = tested on: antibodies in sera from SARS patients (sera 1a, 1b, 2, 6, 37, 62, London, SARS-yellow, SARS-green); format: binding, human; set-up: Binding of serum 6 to linear peptides of protein X1 of SARS-CoV Urbani / Binding of serum 37 to linear peptides of protein X1 of SARS-CoV Urbani / Binding of serum 6 to looped/cyclic peptide (PEPSCAN-ELISA) / Binding of serum 37 to looped/cyclic peptide (PEPSCAN-ELISA) / Binding of serum 37 to looped/cyclic peptides of protein X1 of SARS-CoV Urbani / Binding of serum 6 to linear peptides of protein X2 / Binding of serum 37 to linear peptides of protein X2 / Binding of serum 37 to looped/cyclic peptides of protein X2 of SARS-CoV Urbani / Binding of serum 6 to linear peptides of protein M of SARS-CoV Urbani / Binding of serum 37 to linear peptides of protein M of SARS-CoV Urbani / Binding of serum 6 to looped/cyclic peptides of protein M of SARS-CoV Urbani / Binding of serum 37 to looped/cyclic peptides of protein M of SARS-CoV Urbani / Binding of serum 6 to linear peptides of protein X3 of SARS-CoV Urbani / Binding of serum 37 to linear peptides of protein X3 of SARS-CoV Urbani / Binding of serum 37 to looped/cyclic peptides of protein X3 of SARS-CoV Urbani / Binding of serum 6 to linear peptides of protein X4 of SARS-CoV Urbani / Binding of serum 37 to linear peptides of protein X4 of SARS-CoV Urbani / Binding of serum 37 to looped/cyclic peptides of protein X4 of SARS-CoV Urbani / Binding of serum 6 to linear peptides of protein X5 of SARS-CoV Urbani / Binding of serum 37 to linear peptides of protein X5 of SARS-CoV Urbani / Binding of serum 37 to looped/cyclic peptides of protein X5 of SARS-CoV Urbani / Binding of serum 6 to linear peptides of protein N of SARS-CoV Urbani / Binding of serum 37 to linear peptides of protein N of SARS-CoV Urbani / Binding of serum 6 to linear peptide (PEPSCAN-ELISA) / Binding of serum 1a to looped/cyclic peptides of protein N of SARS-CoV Urbani / Binding of serum 1b to looped/cyclic peptides of protein N of SARS-CoV Urbani / Binding of serum 2 to looped/cyclic peptides of protein N of SARS-CoV Urbani / Binding of serum 6 to looped/cyclic peptides of protein N of SARS-CoV Urbani / Binding of serum 37 to looped/cyclic peptides of protein N of SARS-CoV Urbani / Binding of serum 62 to looped/cyclic peptides of protein N of SARS-CoV Urbani / Binding of serum London to looped/cyclic peptides of protein N of SARS-CoV Urbani / Binding of serum SARS-green to looped/cyclic peptides of protein N of SARS-CoV Urbani: unit not given here
[2] = tested on: control sera (pooled serum of ten healthy LUMC hospital workers; commercial negative donor pooled serum from the Dutch bloodbank); format: binding, human; set-up: Binding of Control serum LUMC to linear peptides / Binding of Control serum Blood-bank to linear peptides / Binding of Control serum LUMC to looped peptides / Binding of Control Serum Blood-Bank to Looped peptides / Binding of Control serum LUMC to linear peptides of the protein M of SARS-CoV Urbani / Binding of Control serum Blood-bank to linear peptides of the protein M of SARS-CoV Urbani / Binding of Control serum LUMC to looped peptides of the protein M of SARS-CoV Urbani / Binding of Control Serum Blood-Bank to Looped peptides of the protein M of SARS-CoV Urbani: unit not given here
[3] = tested on: rabbit serum obtained by immunizing a rabbit with the SARS-CoV strain Frankfurt 1; format: binding; set-up: Binding of a rabbit serum to linear peptides / Binding of a rabbit serum to looped peptides / Rabbit serum linear peptides / Rabbit serum looped peptides / Binding of a rabbit serum to linear peptides of protein N of SARS-CoV Urbani (Rabbit serum linear peptides) / Binding of a rabbit serum to looped/cyclic peptides of protein N of SARS-CoV Urbani (Rabbit serum looped peptides): unit not given here

## WPVTLACFVLAAVYR
[1]
  Binding of serum 1a to linear peptides of protein M of SARS-CoV Urbani: 0.7
  Binding of serum 1a to looped/cyclic peptides of protein M of SARS-CoV Urbani: 0.8
  Binding of serum 1b to linear peptides of protein M of SARS-CoV Urbani: 0.5
  Binding of serum 1b to looped/cyclic peptides of protein M of SARS-CoV Urbani: 0.6
  Binding of serum 2 to linear peptides of protein M of SARS-CoV Urbani: 0.4
  Binding of serum 2 to looped/cyclic peptides of protein M of SARS-CoV Urbani: 0.8
  Binding of serum 6 to linear peptides of protein M of SARS-CoV Urbani: 0.3
  Binding of serum 6 to looped/cyclic peptides of protein M of SARS-CoV Urbani: 1.1
  Binding of serum 37 to linear peptides of protein M of SARS-CoV Urbani: 0.4
  Binding of serum 37 to looped/cyclic peptides of protein M of SARS-CoV Urbani: 0.8
  Binding of serum 62 to linear peptides of protein M of SARS-CoV Urbani: 0.4
  Binding of serum 62 to looped/cyclic peptides of protein M of SARS-CoV Urbani: 1.1
  Binding of serum London to linear peptides of protein M of SARS-CoV Urbani: 0.3
  Binding of serum London to looped/cyclic peptides of protein M of SARS-CoV Urbani: 0.4
  Binding of serum SARS-green to linear peptides of protein M of SARS-CoV Urbani: 0.4
  Binding of serum SARS-green to looped/cyclic peptides of protein M of SARS-CoV Urbani: 0.2
  Binding of serum SARS-yellow to linear peptides of protein M of SARS-CoV Urbani: 0.2
  Binding of serum SARS-yellow to looped/cyclic peptides of protein M of SARS-CoV Urbani: 0.4
[2]
  Binding of Control Serum Blood-Bank to Looped peptides of the protein M of SARS-CoV Urbani: 0.8
  Binding of Control serum Blood-bank to linear peptides of the protein M of SARS-CoV Urbani: 0.7
  Binding of Control serum LUMC to linear peptides of the protein M of SARS-CoV Urbani: 0.5
  Binding of Control serum LUMC to looped peptides of the protein M of SARS-CoV Urbani: 1.2
[3]
  Rabbit serum linear peptides: 0.2
  Rabbit serum looped peptides: 0.4

## LNVPLRGTIVTRPLM
[1]
  Binding of serum 1a to linear peptides of protein M of SARS-CoV Urbani: 0.7
  Binding of serum 1b to linear peptides of protein M of SARS-CoV Urbani: 0.5
  Binding of serum 2 to linear peptides of protein M of SARS-CoV Urbani: 0.6
  Binding of serum 6 to linear peptides of protein M of SARS-CoV Urbani: 0.5
  Binding of serum 37 to linear peptides of protein M of SARS-CoV Urbani: 0.5
  Binding of serum 62 to linear peptides of protein M of SARS-CoV Urbani: 0.5
  Binding of serum London to linear peptides of protein M of SARS-CoV Urbani: 0.4
  Binding of serum SARS-green to linear peptides of protein M of SARS-CoV Urbani: 0.4
  Binding of serum SARS-yellow to linear peptides of protein M of SARS-CoV Urbani: 0.1
  Recognition of the peptide by sera of SARS-CoV infected individuals, and form (linear, looped/cyclic) in which it is recognized: recognized in looped/cyclic form
[2]
  Binding of Control Serum Blood-Bank to Looped peptides of the protein M of SARS-CoV Urbani: 0.6
  Binding of Control serum Blood-bank to linear peptides of the protein M of SARS-CoV Urbani: 0.7
  Binding of Control serum LUMC to linear peptides of the protein M of SARS-CoV Urbani: 0.5
  Binding of Control serum LUMC to looped peptides of the protein M of SARS-CoV Urbani: 0.7
[3]
  Rabbit serum linear peptides: 0.2
  Rabbit serum looped peptides: 0.4

## RIAIWNLDVIISSIV
[1]
  Binding of serum 1a to linear peptides of protein X3 of SARS-CoV Urbani: 0.7
  Binding of serum 1a to looped/cyclic peptides of protein X3 of SARS-CoV Urbani: 0.8
  Binding of serum 1b to linear peptides of protein X3 of SARS-CoV Urbani: 0.3
  Binding of serum 1b to looped/cyclic peptides of protein X3 of SARS-CoV Urbani: 0.5
  Binding of serum 2 to linear peptides of protein X3 of SARS-CoV Urbani: 0.6
  Binding of serum 2 to looped/cyclic peptides of protein X3 of SARS-CoV Urbani: 0.8
  Binding of serum 6 to linear peptides of protein X3 of SARS-CoV Urbani: 0.5
  Binding of serum 6 to looped/cyclic peptides of protein X3 of SARS-CoV Urbani: 0.4
  Binding of serum 37 to linear peptides of protein X3 of SARS-CoV Urbani: 0.5
  Binding of serum 37 to looped/cyclic peptides of protein X3 of SARS-CoV Urbani: 0.6
  Binding of serum 62 to linear peptides of protein X3 of SARS-CoV Urbani: 0.7
  Binding of serum 62 to looped/cyclic peptides of protein X3 of SARS-CoV Urbani: 0.7
  Binding of serum London to linear peptides of protein X3 of SARS-CoV Urbani: 0.7
  Binding of serum London to looped/cyclic peptides of protein X3 of SARS-CoV Urbani: 0.2
  Binding of serum SARS-green to linear peptides of protein X3 of SARS-CoV Urbani: 0.3
  Binding of serum SARS-green to looped/cyclic peptides of protein X3 of SARS-CoV Urbani: 0.3
  Binding of serum SARS-yellow to linear peptides of protein X3 of SARS-CoV Urbani: 0.4
  Binding of serum SARS-yellow to looped/cyclic peptides of protein X3 of SARS-CoV Urbani: 1.0
[2]
  Binding of Control Serum Blood-Bank to Looped peptides of the protein X3 of SARS-CoV Urbani: 0.9
  Binding of Control serum Blood-bank to linear peptides of the protein X3 of SARS-CoV Urbani: 0.7
  Binding of Control serum LUMC to linear peptides of the protein X3 of SARS-CoV Urbani: 0.6
  Binding of Control serum LUMC to looped peptides of the protein X3 of SARS-CoV Urbani: 0.8
[3]
  Rabbit serum linear peptides: 0.3
  Rabbit serum looped peptides: 0.4

## LFLIVAALVFLILCF
[1]
  Binding of serum 1a to linear peptides of protein X4 of SARS-CoV Urbani: 0.6
  Binding of serum 1a to looped/cyclic peptides of protein X4 of SARS-CoV Urbani: 0.8
  Binding of serum 1b to linear peptides of protein X4 of SARS-CoV Urbani: 0.5
  Binding of serum 1b to looped/cyclic peptides of protein X4 of SARS-CoV Urbani: 0.4
  Binding of serum 2 to linear peptides of protein X4 of SARS-CoV Urbani: 0.3
  Binding of serum 2 to looped/cyclic peptides of protein X4 of SARS-CoV Urbani: 0.7
  Binding of serum 6 to linear peptides of protein X4 of SARS-CoV Urbani: 0.4
  Binding of serum 6 to looped/cyclic peptides of protein X4 of SARS-CoV Urbani: 0.3
  Binding of serum 37 to linear peptides of protein X4 of SARS-CoV Urbani: 0.6
  Binding of serum 37 to looped/cyclic peptides of protein X4 of SARS-CoV Urbani: 0.5
  Binding of serum 62 to linear peptides of protein X4 of SARS-CoV Urbani: 0.6
  Binding of serum 62 to looped/cyclic peptides of protein X4 of SARS-CoV Urbani: 0.5
  Binding of serum London to linear peptides of protein X4 of SARS-CoV Urbani: 0.7
  Binding of serum London to looped/cyclic peptides of protein X4 of SARS-CoV Urbani: 0.2
  Binding of serum SARS-green to linear peptides of protein X4 of SARS-CoV Urbani: 0.6
  Binding of serum SARS-green to looped/cyclic peptides of protein X4 of SARS-CoV Urbani: 0.4
  Binding of serum SARS-yellow to linear peptides of protein X4 of SARS-CoV Urbani: 0.7
  Binding of serum SARS-yellow to looped/cyclic peptides of protein X4 of SARS-CoV Urbani: 0.5
[2]
  Binding of Control Serum Blood-Bank to Looped peptides: 0.7
  Binding of Control serum Blood-bank to linear peptides: 0.5
  Binding of Control serum LUMC to linear peptides: 0.4
  Binding of Control serum LUMC to looped peptides: 0.4
[3]
  Rabbit serum linear peptides: 0.3
  Rabbit serum looped peptides: 0.4

## LTSLLKTHRMCKYTQ
[1]
  Binding of serum 1a to linear peptides of protein X2: 0.7
  Binding of serum 1a to looped/cyclic peptides of protein X2 of SARS-CoV Urbani: 0.4
  Binding of serum 1b to linear peptides of protein X2: 0.3
  Binding of serum 1b to looped/cyclic peptides of protein X2 of SARS-CoV Urbani: 0.3
  Binding of serum 2 to linear peptides of protein X2: 0.5
  Binding of serum 2 to looped/cyclic peptides of protein X2 of SARS-CoV Urbani: 0.2
  Binding of serum 6 to linear peptides of protein X2: 0.5
  Binding of serum 6 to looped/cyclic peptides of protein X2 of SARS-CoV Urbani: 0.2
  Binding of serum 37 to linear peptides of protein X2: 0.6
  Binding of serum 37 to looped/cyclic peptides of protein X2 of SARS-CoV Urbani: 0.3
  Binding of serum 62 to linear peptides of protein X2: 0.6
  Binding of serum 62 to looped/cyclic peptides of protein X2 of SARS-CoV Urbani: 0.4
  Binding of serum London to linear peptides of protein X2: 0.5
  Binding of serum London to looped/cyclic peptides of protein X2 of SARS-CoV Urbani: 0.2
  Binding of serum SARS-green to linear peptides of protein X2: 0.2
  Binding of serum SARS-green to looped/cyclic peptides of protein X2 of SARS-CoV Urbani: 0.2
  Binding of serum SARS-yellow to linear peptides of protein X2: 0.4
  Binding of serum SARS-yellow to looped/cyclic peptides of protein X2 of SARS-CoV Urbani: 0.3
[2]
  Binding of Control Serum Blood-Bank to Looped peptides: 0.4
  Binding of Control serum Blood-bank to linear peptides: 0.5
  Binding of Control serum LUMC to linear peptides: 0.4
  Binding of Control serum LUMC to looped peptides: 0.5
[3]
  Binding of a rabbit serum to linear peptides: 0.3
  Binding of a rabbit serum to looped peptides: 0.4
